Reference: PubChem BioAssay (NCI)
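Tested at 5 concentrations; 48 h exposure; 96-well plates; endpoints linearly interpolated, else capped at highest concentration. TGI is the concentration that stops growth completely.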

Tests used:
Test in all cases: growth of human tumour cells (NCI), 48 h
[1] = system: 786-0 renal
[2] = system: A549 NSCLC
[3] = system: CAKI-1 renal
[4] = system: CCRF-CEM leukemia
[5] = system: DU-145 prostate
[6] = system: HOP-62 NSCLC
[7] = system: IGROV1 ovarian
[8] = system: KM12 colon
[9] = system: MDA-MB-435
[10] = system: MDA-N
[11] = system: MOLT-4 leukemia
[12] = system: NCI-H522 lung
[13] = system: OVCAR-5 ovarian
[14] = system: RPMI-8226 leukemia
[15] = system: SF-268 CNS
[16] = system: SK-MEL-5 melanoma
[17] = system: SR leukemia
[18] = system: TK-10 renal
[19] = system: MCF7 breast

SMILES | TGI [1] | TGI [2] | TGI [3] | TGI [4] | TGI [5] | TGI [6] | TGI [7] | TGI [8] | TGI [9] | TGI [10] | TGI [11] | TGI [12] | TGI [13] | TGI [14] | TGI [15] | TGI [16] | TGI [17] | TGI [18] | TGI [19]
CN(C)c1nc2n(CCO)c(-c3ccccc3)c(-c3ccccc3)nc-2c(=O)n1 | > 100 µM | > 100 µM | > 100 µM | > 100 µM | > 100 µM | > 100 µM | > 100 µM | > 100 µM | > 100 µM | > 100 µM | > 100 µM | > 100 µM | > 100 µM | > 100 µM | > 100 µM | > 100 µM | > 100 µM | > 100 µM | –
CCCCCC[C@H]1CC(=O)C2CCCC[C@@]23CC[C@H](CCl)N13 (some centres not stated) (tested in a mixture with another compound) | > 100 µM | > 100 µM | > 100 µM | 90.5 µM | > 100 µM | > 100 µM | > 100 µM | > 100 µM | > 100 µM | – | – | 37.5 µM | > 100 µM | 61.6 µM | > 100 µM | 50.7 µM | – | > 100 µM | 96.9 µM
Cc1n[nH]c(=O)n1/N=C/c1cccs1 | > 100 µM | > 100 µM | > 100 µM | > 100 µM | > 100 µM | > 100 µM | – | > 100 µM | > 100 µM | > 100 µM | – | – | > 100 µM | > 100 µM | > 100 µM | – | – | – | > 100 µM
NCCCCN(CCCN)C(=O)c1ccccc1 | > 100 µM | > 100 µM | > 100 µM | > 100 µM | > 100 µM | > 100 µM | > 100 µM | > 100 µM | > 100 µM | – | > 100 µM | > 100 µM | > 100 µM | > 100 µM | > 100 µM | > 100 µM | – | > 100 µM | > 100 µM
O=c1oc2ccccc2c(O)c1C1c2c(c3ccccc3oc2=O)Oc2c1c(=O)oc1ccccc21 | > 100 µM | – | 69.3 µM | > 100 µM | > 100 µM | > 100 µM | > 100 µM | 57.9 µM | 60 µM | 37.3 µM | > 100 µM | > 100 µM | – | 87.9 µM | 94 µM | 52.1 µM | – | > 100 µM | –
O=C(O)c1cc2cc(c1)N=Cc1ccccc1OCc1cccc(n1)COc1ccccc1C=N2 | > 25 µM | > 25 µM | – | > 25 µM | > 25 µM | > 25 µM | > 25 µM | > 25 µM | 8.25 µM | 9.82 µM | > 25 µM | > 25 µM | > 25 µM | 22 µM | > 25 µM | – | > 25 µM | > 25 µM | > 25 µM
CC(=O)OC(C)c1cc2c(s1)C(=O)c1scc(C(C)OC(C)=O)c1C2=O (configuration not stated) | 0.461 µM | 4.06 µM | 5.04 µM | – | 0.317 µM | 0.44 µM | 2.04 µM | 0.359 µM | 0.0815 µM | 0.256 µM | – | 0.571 µM | 2.74 µM | – | 0.504 µM | 0.208 µM | – | 1.83 µM | 0.605 µM
CCN(CC)CCCNc1nc(=O)[nH]c(C)c1C(=O)Nc1c2ccccc2nc2ccccc12 | 32.6 µM | 44.2 µM | 56 µM | > 100 µM | > 100 µM | > 100 µM | 72.6 µM | 26.5 µM | > 100 µM | 23.7 µM | > 100 µM | 21.3 µM | > 100 µM | 47.4 µM | – | 29 µM | – | > 100 µM | > 100 µM
CC(=O)Nc1sc([N+](=O)[O-])cc1S(=O)(=O)c1ccc(Cl)cc1 | > 100 µM | > 54.6 µM | > 20.8 µM | > 100 µM | > 40.8 µM | 3.99 µM | > 100 µM | 14.5 µM | > 53.3 µM | > 100 µM | > 50.2 µM | 11 µM | > 100 µM | > 100 µM | > 100 µM | 1.95 µM | – | > 100 µM | 9.41 µM
Cc1nc2ccccc2c(=O)n1NC(=O)c1ccc([N+](=O)[O-])cc1 | > 100 µM | > 100 µM | – | > 100 µM | > 100 µM | > 100 µM | > 100 µM | > 100 µM | > 100 µM | > 100 µM | > 100 µM | > 100 µM | > 100 µM | > 100 µM | > 100 µM | > 100 µM | > 100 µM | > 100 µM | > 100 µM
CN(Cc1cnc2nc(N)nc(N)c2n1)c1ccc(C(=O)NCS(=O)(=O)O)cc1 | > 100 µM | > 100 µM | – | – | 82.7 µM | > 100 µM | > 100 µM | > 100 µM | > 100 µM | > 100 µM | > 100 µM | > 100 µM | > 100 µM | > 100 µM | > 100 µM | > 100 µM | – | > 100 µM | > 100 µM
ClCCN1CCOC1=Nc1ccc2c(c1)CCCC2 | 35.3 µM | 57.5 µM | 53.8 µM | 35.7 µM | 48.4 µM | 22 µM | 24.8 µM | 32 µM | 29.2 µM | 28.3 µM | 39.9 µM | 54.9 µM | 32.4 µM | 26.2 µM | 47.7 µM | 7.38 µM | 61.1 µM | – | –
O=C1C(C(c2ccccc2)N2CCOCC2)=C(O)C(c2ccccc2)N1c1ccccc1 (configuration not stated) | > 10 µM | > 10 µM | > 10 µM | > 10 µM | > 10 µM | > 10 µM | > 10 µM | > 10 µM | > 10 µM | > 10 µM | > 10 µM | > 10 µM | > 10 µM | > 10 µM | > 10 µM | > 10 µM | – | > 10 µM | > 10 µM
CCOC(=O)N(c1ccccc1)c1cc(=O)n2ccccc2n1 | > 100 µM | > 100 µM | > 100 µM | > 100 µM | > 100 µM | > 100 µM | > 100 µM | > 100 µM | > 100 µM | – | > 100 µM | – | > 100 µM | > 100 µM | > 100 µM | > 100 µM | > 100 µM | > 100 µM | > 100 µM
